Counter-ions that a name gives are not always drawn. Like-named read-outs stand apart in the source and are kept apart here.
Columns and labels:
[1] = system: Aedes aegypti; test: In vitro Warm Body assay, mosquitoes landing on treated warm body; assay type: in vivo; details: for pest or weed control at 0.0016 % / pest or weed control at 0.04 %: Aedes aegypti, read-out: decrease of landings
Protocol: (§1) The arthropod controlling effect according to the present invention is determined on mosquitoes using an adapted Warm Body assay as defined in Kröber T, Kessler S, Frei J, Bourquin M, Guerin P M. An in vitro assay for testing mosquito controlling compounds employing a warm body and carbon dioxide as a behavioral activator. J Am Mosq Control Assoc. 2010; 26:381-386.
(§2) The controlling effect according to the present invention is determined by testing the Warm Body assay against the yellow fever mosquito, Aedes aegypti Rockefeller strain. […] Observations of controlling efficacy were made on host-seeking females of uniform age, 5 to 10 days old selected as mentioned in the publication mentioned hereinabove. Tested hungry females had access to 10% sugar solution but were not blood-fed.
(§3) The published protocol has been adapted in not manually counting the landing mosquitoes but automatically using an automatic counting software, the switch from Anopheles gambiae to A. aegypti led to a decrease of mosquitoes' number placed in the tested cage due to the size difference (i.e. 30 mosquitoes instead of 50) and to an increase of lighting as A. aegypti is a diurnal mosquitoes (i.e. 150 lux instead of 4 lux).
as §2, with “A.” for “Aedes”
as §1, with “The” for “The arthropod”, “was assessed” for “is determined on mosquitoes”
as §3, with “Aedes” for “A.”
In this in-vitro assay the number of A. aegypti landing on a warm body treated with the tested stimuli was measured in order to assess the repellency effect. Three replicates were carried on the three different doses: 0.0016%, 0.04% and 1% in ethanol, using 25 A. aegypti 10-12 days old females per cage.
In this in-vitro assay, the number of Aedes aegypti landing on a warm body treated with the tested stimuli was measured in order to assess the repellency effect. Three replicates were carried on the three different doses: 0.0016%, 0.04% and 1% in ethanol.
In this in-vitro assay, the number of Aedes aegypti landing on a warm body treated with the tested stimuli was measured in order to assess the repellency effect. One replicate was carried at different doses ranging from 0.0016% up to 1% in ethanol.

[2] = system: Ixodes ricinus; test: In vitro Warm Plate Assay for ticks; assay type: in vivo; details: for concentration at which the level of 85% of ticks affected is reached: Tables 10 and 12
Protocol: Repellent efficacy of the different compounds was assessed against the sheep tick, Ixodes ricinus. I. ricinus is one of the recommended model organisms mentioned by the Guidance on the European Biological Products Regulation [Vol II, Efficacy-Assessment & Evaluation (Parts B+C), v. 3.0, April 2018]. Observations of repellent efficacy were made on last stage nymphs.
The repellent efficacy was assessed using the protocol of the in-vitro Warm Plate Assay as defined in Kröber T, Bourquin M, Guerin P M. A standardized in vivo and in vitro test method for evaluating tick repellents. Pesticide Biochemistry and Physiology. 2013; 107 (2): 160-168.].
The mean±SD number of ticks Ixodes ricinus walking down (affected), falling (affected) or walking-up (non affected) from the warm plate treated with ethanol, N,N-diethyl-3-methylbenzamide, (2,5-dimethyl-2,3-dihydro-1H-inden-2yl)methanol (Ingredient 2) or (2,4,6-trimethyl-2,3-dihydro-1H-inden-2-yl)methanol (Ingredient 1) diluted in ethanol at 0.4 mg/ml and 10 mg/mL was assessed on n groups of 12 ticks (n=2-5).
In this in-vitro assay, the percentage of ticks Ixodes ricinus affected by the stimulus loaded on the warm plate was measured in order to assess the repellency effect. Twelve ticks were assessed per concentrations that goes from 0.0016% up to 1% in ethanol.
Using the same in-vitro setup, the effect on ticks behavior (n≥12) of different stimuli diluted in ethanol at 20% (w/w) was assessed overtime.

[3] = Ixodes ricinus, 0.04% (Table 10), read-out: percentage of ticks affected on the Warm Plate
[4] = Ixodes ricinus, 0.2% (Table 10), read-out: percentage of ticks affected on the Warm Plate
[5] = Ixodes ricinus, 1% (Table 10), read-out: percentage of ticks affected on the Warm Plate
[6] = Ixodes ricinus, 0.0016% (Table 11), read-out: percentage of ticks affected on the Warm Plate
[7] = Ixodes ricinus, 0.04% (Table 11), read-out: percentage of ticks affected on the Warm Plate
[8] = Ixodes ricinus, 1% (Table 11), read-out: percentage of ticks affected on the Warm Plate

Compound | pest or weed control at 0.04 % [2, 3] | pest or weed control at 0.2 % [2, 4] | pest or weed control at 1 % [2, 5] | number of mosquitoes landed on the Warm Body ([1]; 0.0016% in ethanol (Table 6)) | number of mosquitoes landed on the Warm Body ([1]; 0.04% in ethanol (Table 6)) | number of mosquitoes landed on the Warm Body ([1]; 1% in ethanol (Table 6)) | pest or weed control at 0.0016 % [2, 6] | pest or weed control at 0.04 % [2, 7] | pest or weed control at 1 % [2, 8] | further results
CC(C)c1ccc2c(c1)CC(C)(CO)C2 (racemic) [5-isopropyl-2-methyl-2-indanmethanol] | 71% | 87% | 92% |  |  |  |  |  |  | pest or weed control at 0.0016 % [1]: 4 to 29%; pest or weed control at 0.00032 % ([2]; Ixodes ricinus, 0.00032% (Table 10), read-out: percentage of ticks affected on the Warm Plate): 0%; pest or weed control at 0.0016 % ([2]; Ixodes ricinus, 0.0016% (Table 10), read-out: percentage of ticks affected on the Warm Plate): 21%; pest or weed control at 0.008 % ([2]; Ixodes ricinus, 0.008% (Table 10), read-out: percentage of ticks affected on the Warm Plate): 0%; concentration at which the level of 85% of ticks affected is reached [2]: 0.2%
Cc1ccc2c(c1)[C@H]1OCOC[C@H]1C2 (racemic) [(4aRS,9bSR)-8-methyl-4,4a,5,9b-tetrahydroindeno[1,2-d][1,3]dioxin] | 8% | 33% | 85% | 103 | 8 | 8 |  |  |  | 
CC(=O)C1(C)Cc2ccc(C)c(C)c2C1 (racemic) [(+−)-1-(2,4,5-trimethyl-2,3-dihydro-1H-inden-2-yl)ethanone] | 0% | 38% | 92% | 31 | 5 | 18 |  |  |  | 
CC(=O)C1(C)Cc2ccc(C)cc2C1 (racemic) [(+−)-1-(2,5-dimethyl-2,3-dihydro-1H-inden-2-yl)ethanone] | 0% | 42% | 100% | 119 | 15 | 6 |  |  |  | 
CC1(CO)Cc2ccc(C(C)(C)C)cc2C1 (racemic) [(+−)-5-tert-butyl-2-methyl-2-indanmethanol] |  |  |  |  |  |  | 0% | 8% | 92% | repellent effect with increasing amount of stimuli (in words) ([1]; 0.0016%, 0.04% and 1% in ethanol (FIG. 10)): low decrease of landing
Cc1ccc2c(c1)CCC(C)(CO)C2 (racemic) [(+−)-(2,6-dimethyl-1,2,3,4-tetrahydro-2-naphthalenyl)methanol] | 8% | 71% | 100% | 57 | 65 | 3 |  |  |  | 
Cc1ccc2c(c1)CC(CO)C2 (racemic) [(+−)-(5-methyl-2,3-dihydro-1H-inden-2-yl)methanol] | 0% | 100% | 100% | 65 | 7 | 5 |  |  |  | concentration at which the level of 85% of ticks affected is reached [2]: 0.2%
Cc1cc(C)c2c(c1)CC(C)(CO)C2 (racemic) [ingredient #1, (2,4,6-trimethyl-2,3-dihydro-1H-inden-2-yl)methanol] |  |  |  |  |  |  | 20% | 57% | 96% | mosquitoes landing on the warm body ([1]; 1% in ethanol (FIG. 8)): no mosquito landed; pest or weed control at 0.04 % [1]: 88%; MEAN % affected (ticks) ([2]; 0.4 mg/mL in ethanol (Table 5)): 67%; MEAN % affected (ticks) ([2]; 10 mg/mL in ethanol (Table 5)): 100%; ticks non-affected over 12 (in words) ([2]; 0.04%): three and five ticks over 12 being non-affected; ticks affected / not affected over 12 (in words) ([2]; 1%): all the ticks being affected; pest or weed control at 0.0016 % ([2]; Ixodes ricinus, 0.0016% in ethanol (Table 12), read-out: percentage of ticks affected on the Warm Plate): 20%; pest or weed control at 0.0053 % ([2]; Ixodes ricinus, 0.0053% in ethanol (Table 12), read-out: percentage of ticks affected on the Warm Plate): 7%; pest or weed control at 0.008 % ([2]; Ixodes ricinus, 0.008% in ethanol (Table 12), read-out: percentage of ticks affected on the Warm Plate): 8%; pest or weed control at 0.0119 % ([2]; Ixodes ricinus, 0.0119% in ethanol (Table 12), read-out: percentage of ticks affected on the Warm Plate): 23%; pest or weed control at 0.0178 % ([2]; Ixodes ricinus, 0.0178% in ethanol (Table 12), read-out: percentage of ticks affected on the Warm Plate): 0%; pest or weed control at 0.0267 % ([2]; Ixodes ricinus, 0.0267% in ethanol (Table 12), read-out: percentage of ticks affected on the Warm Plate): 7%; pest or weed control at 0.04 % ([2]; Ixodes ricinus, 0.04% in ethanol (Table 12), read-out: percentage of ticks affected on the Warm Plate): 57%; pest or weed control at 0.0598 % ([2]; Ixodes ricinus, 0.0598% in ethanol (Table 12), read-out: percentage of ticks affected on the Warm Plate): 13%; pest or weed control at 0.089 % ([2]; Ixodes ricinus, 0.089% in ethanol (Table 12), read-out: percentage of ticks affected on the Warm Plate): 41%; pest or weed control at 0.2 % ([2]; Ixodes ricinus, 0.2% in ethanol (Table 12), read-out: percentage of ticks affected on the Warm Plate): 85%; pest or weed control at 0.447 % ([2]; Ixodes ricinus, 0.447% in ethanol (Table 12), read-out: percentage of ticks affected on the Warm Plate): 92%; pest or weed control at 1 % ([2]; Ixodes ricinus, 1% in ethanol (Table 12), read-out: percentage of ticks affected on the Warm Plate): 96%
Cc1ccc2c(c1)CC(C)(C(C)O)C2 (stereo not shown) [1-(2,5-dimethyl-2-indanyl)-1-ethanol] |  |  |  |  |  |  | 15% | 0% | 100% | pest or weed control at 0.04 % [1]: ~70%
OCC1Cc2ccccc2C1 [2,3-dihydro-1H-inden-2-ylmethanol] | 29% | 100% | 92% | 32 | 1 |  |  |  |  | concentration at which the level of 85% of ticks affected is reached [2]: 0.2%
N#CC1Cc2ccccc2C1 [2,3-dihydro-1H-indene-2-carbonitrile] | 29% | 71% | 100% | 59 | 13 |  |  |  |  | 
COCC1(C)Cc2ccc(C)cc2C1 (stereo not shown) [(2,5-dimethyl-2,3-dihydro-1H-inden-2-yl)methyl methyl ether] |  |  |  |  |  |  | 0% | 17% | 79% | decrease of the number of landing ([1]; 1% in ethanol (FIG. 9)): 86%; pest or weed control at 0.0016 % [1]: 4 to 29%
Cc1ccc2c(c1)CC(C)(COC=O)C2 (stereo not shown) [(2,5-dimethyl-2-indanyl)methyl formate] |  |  |  |  |  |  | 0% | 7% | 85% | pest or weed control at 0.0016 % [1]: 4 to 29%
CC1(CO)Cc2ccccc2C1 [(2-methyl-1,3-dihydroinden-2-yl)methanol] |  |  |  | 65 | 16 | 1 | 0% | 14% | 92% | 

Source: US20260068882A1, “ARTHROPOD CONTROLLING COMPOSITION” (Firmenich SA, priority 2019, published 2026)
